Values joined by “and” are separate entries in the source; they are usually repeats but may differ in a detail not shown here. Equal values may be shown once. Numbers after ± are expanded uncertainties.
Assay: specific heat capacity at constant pressure; xn = mol fraction of the nth substance listed
Conditions: 100 kPa, Crystal of intercomponent compound 1, x2 = 0.501

[Se] [selenium] + [Ga]
Conditions	specific heat capacity
145.47 K, relaxation calorimetry	269.1 ± 11 J/K/kg
153.32 K, relaxation calorimetry	274.68 ± 11 J/K/kg
153.34 K, relaxation calorimetry	275.63 ± 11 J/K/kg
153.36 K, relaxation calorimetry	275.49 ± 11 J/K/kg
161.23 K, relaxation calorimetry	282.15 ± 11 J/K/kg
161.3 K, relaxation calorimetry	279.06 ± 11 J/K/kg
161.31 K, relaxation calorimetry	280.6 ± 11 J/K/kg
169.16 K, relaxation calorimetry	286.18 ± 12 J/K/kg
169.22 K, relaxation calorimetry	285.24 ± 12 J/K/kg and 284.23 ± 12 J/K/kg
177.11 K, relaxation calorimetry	290.02 ± 12 J/K/kg
177.12 K, relaxation calorimetry	289.62 ± 12 J/K/kg and 289.08 ± 12 J/K/kg
185.02 K, relaxation calorimetry	293.18 ± 12 J/K/kg
185.03 K, relaxation calorimetry	293.58 ± 12 J/K/kg
185.05 K, relaxation calorimetry	293.38 ± 12 J/K/kg
192.93 K, relaxation calorimetry	296.41 ± 12 J/K/kg
192.95 K, relaxation calorimetry	296.68 ± 12 J/K/kg
192.96 K, relaxation calorimetry	296.81 ± 12 J/K/kg
200.83 K, relaxation calorimetry	299.5 ± 12 J/K/kg
200.86 K, relaxation calorimetry	299.77 ± 12 J/K/kg
200.88 K, relaxation calorimetry	299.7 ± 12 J/K/kg
208.74 K, relaxation calorimetry	302.93 ± 12 J/K/kg
208.76 K, relaxation calorimetry	303 ± 12 J/K/kg
208.8 K, relaxation calorimetry	302.6 ± 12 J/K/kg
216.62 K, relaxation calorimetry	305.29 ± 12 J/K/kg
216.66 K, relaxation calorimetry	304.88 ± 12 J/K/kg
216.71 K, relaxation calorimetry	304.61 ± 12 J/K/kg
224.53 K, relaxation calorimetry	308.38 ± 13 J/K/kg
224.58 K, relaxation calorimetry	307.71 ± 13 J/K/kg
224.64 K, relaxation calorimetry	307.17 ± 13 J/K/kg
232.41 K, relaxation calorimetry	310.8 ± 13 J/K/kg
232.48 K, relaxation calorimetry	309.86 ± 13 J/K/kg
232.56 K, relaxation calorimetry	309.05 ± 13 J/K/kg
240.31 K, relaxation calorimetry	311.88 ± 13 J/K/kg
240.39 K, relaxation calorimetry	310.67 ± 13 J/K/kg
240.46 K, relaxation calorimetry	310.2 ± 13 J/K/kg
248.21 K, relaxation calorimetry	312.89 ± 13 J/K/kg
248.3 K, relaxation calorimetry	312.15 ± 13 J/K/kg
248.37 K, relaxation calorimetry	311.47 ± 13 J/K/kg
256.11 K, relaxation calorimetry	314.1 ± 13 J/K/kg
256.21 K, relaxation calorimetry	313.22 ± 13 J/K/kg
256.27 K, relaxation calorimetry	312.68 ± 13 J/K/kg
262.02 K, Extra sensitive DSC	315.04 ± 12 J/K/kg
264.01 K, relaxation calorimetry	314.5 ± 13 J/K/kg
264.11 K, relaxation calorimetry	313.9 ± 13 J/K/kg
264.17 K, relaxation calorimetry	313.42 ± 13 J/K/kg
265 K, Extra sensitive DSC	315.24 ± 12 J/K/kg
270 K, Extra sensitive DSC	315.51 ± 12 J/K/kg
271.91 K, relaxation calorimetry	315.31 ± 13 J/K/kg
272.02 K, relaxation calorimetry	314.5 ± 13 J/K/kg
272.07 K, relaxation calorimetry	314.3 ± 13 J/K/kg
275 K, Extra sensitive DSC	316.52 ± 12 J/K/kg
279.81 K, relaxation calorimetry	318.13 ± 13 J/K/kg
279.92 K, relaxation calorimetry	317.12 ± 13 J/K/kg
279.96 K, relaxation calorimetry	317.06 ± 13 J/K/kg
280 K, Extra sensitive DSC	317.19 ± 12 J/K/kg
285 K, Extra sensitive DSC	318.2 ± 12 J/K/kg
290 K, Extra sensitive DSC	319.21 ± 12 J/K/kg
295 K, Extra sensitive DSC	319.95 ± 12 J/K/kg
299.68 K, Extra sensitive DSC	320.55 ± 12 J/K/kg
307 K, Extra sensitive DSC	321.29 ± 12 J/K/kg
310 K, Extra sensitive DSC	322.03 ± 12 J/K/kg
315 K, Extra sensitive DSC	322.3 ± 13 J/K/kg
320 K, Extra sensitive DSC	322.91 ± 13 J/K/kg
325 K, Extra sensitive DSC	323.65 ± 13 J/K/kg
330 K, Extra sensitive DSC	324.52 ± 13 J/K/kg
335 K, Extra sensitive DSC	325.93 ± 13 J/K/kg
340 K, Extra sensitive DSC	325.93 ± 13 J/K/kg
345 K, Extra sensitive DSC	326.94 ± 13 J/K/kg
350 K, Extra sensitive DSC	328.02 ± 13 J/K/kg
354.61 K, Extra sensitive DSC	329.03 ± 13 J/K/kg
358.6 K, Extra sensitive DSC	328.76 ± 13 J/K/kg
